Counter-ions that a name gives are not always drawn.
Experiments:
Type in all cases: in vitro ADME
[1] = Metabolic stability in liver microsomes, Method II, human
Description: Determination of Metabolic Stability in Liver Microsomes—Method II
The in vitro metabolic stability assay was performed in a 96-deep-well plate with incubation at 37° C. 10 mM DMSO stock solution of the test compound was diluted 1:20 in acetonitrile, followed by an additional 1:10 dilution in 100 mM potassium phosphate buffer (KPi) to yield a final reaction concentration of 1 μM. Immediately prior to the start of the experiment, respective animal or human liver microsomes (male Sprague-dawley rat, male CD-1 mouse, or pooled human liver microsomes) were diluted in 100 mM KPi to 1.25 mg/mL liver microsomal protein. 290 μL of cofactor solution (1.7 mM NADPH, 1.7 mM UDPGA, 3.4 mM MgCl in 100 mM KPi) was added to 200 μL of microsomal protein for a final volume of 490 μL. The reaction was initiated by adding 10 μL of the 50 μM test solution to 490 μL of microsomal protein for a final volume 500 μL enzyme-compound mixture.
At 0, 5, 15 and 30 minute time points in the reaction, reaction aliquots (75 μL) were removed and the reactions were terminated by the addition of 50:50 acetonitrile/methanol solution (75 μL) containing a mass spectrometry internal standard (0.5 μM glyburide). The samples were centrifuged at 4000 RPM for 10 minutes. Supernatants (15 μL aliquots) were transferred to a new plate where each well contains 90 μL of deionized water. The supernatants solution were analyzed by UPLC/MS/MS for quantitation of parent remaining compound under multiple reactions monitoring mode (MRM) in positive mode. The percentage of compound remaining, relative to 0 minutes, was used to estimate in vitro elimination-rate constant (k) which was used to calculate in vitro metabolic clearance rates.
Analysis of the samples was performed on an ultra-performance liquid chromatography-tandem mass spectrometry (UPLC/MS/MS) system consisting of an AB Sciex Qtrap 5500 mass spectrometer, AB Sciex Turbo V ion source, Waters Acquity Sample Organizer, Waters Acquity Column manager, Waters Acquity Sample manager, and a Waters Acquity Binary Solvent Manager. Chromatographic separation of analyte and internal standard was achieved using a reverse phase C-18 column (50×2.1 mm, 1.7 μm, Acquity UPLC BEH C-18) with the following UPLC mobile phases and elution gradient: […]
UPLC mobile phase A: 0.25% formic acid in 5% methanol; mobile phase B: 0.25% formic acid in […].
LC gradient and flow rate are listed below: […]
The injection volume was 5 μL. Compounds were detected using Analyst 1.5.1 software which collects intensity data for all fragments related to the molecular weight of the test compound. After collection of the raw data, the software identifies and integrates the peak of the strongest intensity.
Each microsomal elimination rate, k, was based on a 4-point elimination curve tested in duplicates. LC-MS/MS raw data for a reaction plate was returned as integrated analyte peak areas for the test compound and internal standard used in the quench solution for the reaction to enable use of analyte:internal standard peak area ratios (PARs) for all data comparisons. The reaction time point (e.g. 0, 5, 15 and 30 minutes) was plotted versus the natural logarithm of percent test compound remaining relative to 0 minutes (based on relative PAR). The slope of this clearance plot, k, was used to calculate the in vitro half-life.
[formula] The intrinsic clearance value, CLint (expressed as μL/min/mg microsomal protein) calculation is shown below:
[formula] […]

[2] = Metabolic stability in liver microsomes, Method I, rat
Description: The in vitro metabolic stability assay was performed in a 96-well glass plate with shaking incubation at 37° C. A 10 mM DMSO stock solution of the test compound was sequentially diluted 1:1000 to yield a final reaction concentration of 1 μM in 50 mM KPi. […] 30 μL of the 10 μM solution containing the test compound was added to 120 μL of microsomal protein for 150 μL enzyme-compound mixture. The reaction was initiated by adding 150 μL of cofactor solution (2 mM NADPH, 4 mM MgCl in 50 mM KPi) to the enzyme-compound mixture, and the final reaction concentrations are listed in the table below.
At 0, 5, 10 and 30 minute time points in the reaction, reaction aliquots (50 μL) were removed and the reactions were terminated by the addition of acetonitrile (150 μL) containing a mass spectrometry internal standard (1 μM glyburide). The samples were centrifuged and the supernatants analyzed by LC-MS/MS for quantization of remaining compound. […]
Mobile phase A consisted of purified water containing 0.01% formic acid. […] Compounds were detected using the Thermo QuikQuan software which collects intensity data for all fragments related to the molecular weight of the test compound. […]

[3] = Metabolic stability in liver microsomes, Method II, mouse
Description: The in vitro metabolic stability assay was performed in a 96-deep-well plate with incubation at 37° C. 10 mM DMSO stock solution of the test compound was diluted 1:20 in acetonitrile, followed by an additional 1:10 dilution in 100 mM potassium phosphate buffer (KPi) to yield a final reaction concentration of 1 μM. […] 290 μL of cofactor solution (1.7 mM NADPH, 1.7 mM UDPGA, 3.4 mM MgCl in 100 mM KPi) was added to 200 μL of microsomal protein for a final volume of 490 μL. The reaction was initiated by adding 10 μL of the 50 μM test solution to 490 μL of microsomal protein for a final volume 500 μL enzyme-compound mixture.
UPLC mobile phase A: 0.25% formic acid in 5% methanol; mobile phase B: 0.25% formic acid in 95% water.
Each microsomal elimination rate, k, was based on a 4-point elimination curve tested in duplicates. LC-MS/MS raw data for a reaction plate was returned as integrated analyte peak areas for the test compound and internal standard used in the quench solution for the reaction to enable use of analyte:internal standard peak area ratios (PARs) for all data comparisons. […]
[formula] The intrinsic clearance value, CLint (expressed as μL/min/mg microsomal protein) calculation is shown below: […]

Human microsomal stability CLint [1] [µL/min/mg]	Rat microsomal stability CLint [2] [µL/min/mg]	Mouse microsomal stability CLint [3] [µL/min/mg]	SMILES
31.15		51.00	C[C@H](Nc1nccc(N2C(=O)OC[C@@H]2[C@@H](C)N)n1)c1cnc(-c2ccc(Cl)cc2)s1 [Example 380, (S)-4-((R)-1-aminoethyl)-3-(2-(((S)-1-(2-(4-chlorophenyl)thiazol-5-yl)ethyl)amino)pyrimidin-4-yl)oxazolidin-2-one]
<7.70		18.72	C[C@H](Nc1nccc(N2C(=O)OC[C@@H]2CF)n1)c1cn(-c2ccc(Cl)cc2)cn1 [Example 404, (R)-3-(2-(((S)-1-(1-(4-chlorophenyl)-1H-imidazol-4-yl)ethyl)amino)pyrimidin-4-yl)-4-(fluoromethyl)oxazolidin-2-one]

The next lines start with the compound.

SMILES	Human microsomal stability CLint [1] [µL/min/mg]	Rat microsomal stability CLint [2] [µL/min/mg]	Mouse microsomal stability CLint [3] [µL/min/mg]
C[C@H](Nc1nccc(N2C(=O)OCC2[C@H](C)F)n1)c1cn(-c2ccc(C(F)F)cc2)cn1 (stereo partly shown) [456 as TFA salt]	16.79	44.66	
C[C@H](Nc1nccc(N2C(=O)OC[C@@H]2[C@H](C)F)n1)c1cn(-c2ccc(F)cc2)cn1 [Example 401, (R)-4-((S)-1-fluoroethyl)-3-(2-(((S)-1-(1-(4-fluorophenyl)-1H-imidazol-4-yl)ethyl)amino)pyrimidin-4-yl)oxazolidin-2-one]	<7.70		33.13
C[C@H](Nc1nccc(N2C(=O)OC[C@@H]2[C@H](C)F)n1)c1ncc(-c2ccnc(C(F)(F)F)c2)cc1F [Example 463, (R)-3-(2-(((S)-1-(5-fluoro-2′-(trifluoromethyl)-[3,4′-bipyridin]-6-yl)ethyl)amino)pyrimidin-4-yl)-4-((S)-1-fluoroethyl)oxazolidin-2-one]	28.27		35.45

From patent publication US10112931B2, “3-pyrimidin-4-yl-oxazolidin-2-ones as inhibitors of mutant IDH” (NOVARTIS AG, priority 2013, dated 2018)
